# Experiments:
# HLA-B*57:01 [1] = target: T1, HLA-B*57:01 (Homo sapiens, UniProt P01889, D201E/D98Y/E176V/E187L/E204Q/E69M/E70A/G107R/I90N/K202T/L105A/L119I/N104I/N87E/Q89R/Q94S/R106L/R155S/R180L/R86G/S101N/S121V/S35A/S48A/T118I/V36M/Y140S/Y91M); assay: MHC refolding ELISA (capture ELISA of refolded MHC-peptide complex); type: biochemical; design: Denatured heavy chain (final concentration 1 μM)
# Method: FIG. 13. Primary assay: refolding ELISA.
# Refolding reactions were set up in 96-well plates on ice by the successive addition of the following: • 1. Refolding Buffer (400 mM Arg-HCl, 100 mM Tris 8.0, 5 mM glutathione (GSH), 0.5 mM glutathione disulfide (GSSG), 1× cOmplete protease inhibitor cocktail); • 2. Beta-2-microglobulin (final concentration 2 μM). • 3. Peptide (final concentration 40 μM). • 4. Denatured heavy chain (final concentration 1 μM).
# […] Meanwhile, 96-well ELISA plate (Coming 3361) was treated with W6/32 (5 μg/mL) at 4° C. overnight. The plate was washed with PBS (2×200 μL), then blocked with 375 μL 3% BSA/PBS at 23° C. for 1 h. After washing the plate with PBST (3×200 μL), 90 μL 1% BSA/PBS was added to each well.
# Detection of refolding was performed as follows: • 1. Add 10 μL of the refolding mixture to each well of the ELISA plate. • 2. Incubate the plate with shaking at 23° C. for 1 h. • 3. Wash plate with 1% BSA/PBS (3×200 μL). • 4. Add 50 μL BBM.1-HRP (1 μg/mL in 1% BSA/PBS) and incubate the plate with shaking at 23° C. for 1 h. • 5. Wash plate with PBST (3×200 μL). • 6. Wash plate with PBS (1×100 μL). • 7. Add 50 μL TMB Ultra and incubate the plate with shaking for 5 min. • 8. Stop the reaction by addition of 20 μL 2.0 M sulfuric acid. • Read absorbance at 450 nm within 10 min. […]
# HLA-B*57:01 [2] = target: T1, HLA-B*57:01; conditions: PepV HSITYLLPV; known; cited from earlier work
"stabilization of the presentation of mutant K-Ras peptides by HLA-B*57:01 (HLA-B*57:01 [1]; peptide panel VVVGAVGVGG/A/V/I/K/W and HSITYLLPV (FIG. 8, FIG. 9))",SMILES,"MHC-peptide complex formation after 72 h (HLA-B*57:01 [1]; 40 μM G12V 7-16, 1% DMSO, 10° C., 72 hours)",stabilization of PepV in HLA-B*57:01 (HLA-B*57:01 [2])
–,CNS(=O)(=O)c1cc(Nc2nccc(N(C)c3ccc4nn(C)c(C)c4c3)n2)ccc1C [09-045B],may be less susceptible to this instability,–
induced stabilization,Nc1nc(NC2CC2)c2ncn([C@H]3C=C[C@@H](CO)C3)c2n1 [abacavir],–,stabilized

# — patent US20230111132A1, “STABILIZATION OF MHC COMPLEXES” (The Regents of the University of California, priority 2019, published 2023)
